Test results from patent US20250170127A1, “RE-SENSITIZING MULTIDRUG-RESISTANT (MDR) GRAM-NEGATIVE BACTERIA TO COLISTIN USING IONOPHORES” (The Regents of the University of Colorado, a body corporate, priority 2022, published 2025).
≈ marks a conversion by molar mass, not a printed value. Read-outs that look alike come from different tables or passages of the source.

Experiments:
E. coli AR-0493 [1] = assay: Minimum re-sensitizing concentration (MRC) in the presence of colistin; assay type: cell-based; conditions: in the presence of 2 μg/mL colistin, E. coli AR-0493
Description: These 10 compounds were tested for their MICs and minimum re-sensitizing concentrations (MRCs) in the presence colistin at 2 μg/mL in E. coli AR-0493.
The present inventors further conducted MRC screens of selected compounds from groups 2-5 in AR-0493. Compound were tested against AR-0493 with compound X+2 μg/mL Colistin.
All compounds were tested for their respective minimum resensitizing concentrations (MRCs) for colistin against E. coli. AR0493, a MDR strain from CDC and FDA Antibiotic Resistance Bank. […] For the symmetrical bisanilino series, 7a-p, electron-donating alkyl and alkoxy groups (entries 7a-g, Table 5) at various positions of the phenyl rings were investigated. […] Three asymmetric bisanilino analogs (7q-s, Table 5) were synthesized based on the SARs of the monoanilino analogs 8a-p (vide infra).
(§1) General Methods. MDR strains E. coli AR-0493, AR-0346, and AR-0538, Salmonella Enteritidis AR-0496, Salmonella Typhimurium AR-0635, K. pneumoniae AR-0497, A. baumannii AR-0300 and AR-0310 were all obtained from the CDC & FDA Antibiotic Resistance Isolate Bank. E. coli K-12 was a gift from the Copley lab (Department of MCD Biology, University of Colorado Boulder). HeLa cells were purchased from the ATCC. All bacterial strains were grown on trypticase soy agar supplemented with 5% sheep blood (BAP). Bacteria were then cultured in Luria-Bertani (LB) medium at 35° C. until they achieve the log phase before screening or antimicrobial testing using CAMHB media. MIC, MRC, and checkerboard analyses and mammalian growth inhibition analyses in Hela cells were performed as described previously. More details are given in Supporting information.

E. coli AR-0493 [2] = assay: MIC, CLSI broth microdilution, substance alone; assay type: cell-based
Description: A MDR E. coli strain AR-0493 (a.k.a., ATCC BAA-3170) was obtained from the CDC and FDA Antibiotic Resistance Bank and used for the initial screen. […] Considering the difficulties on the discovery of novel antimicrobial reagents against Gram-negative bacteria, we chose to screen the fragment-based library of 3,200 compounds from TimTec (Tampa, FL). […] The screen used a modified broth microdilution assay.
These 10 compounds were tested for their MICs and minimum re-sensitizing concentrations (MRCs) in the presence colistin at 2 μg/mL in E. coli AR-0493. […] To evaluate their toxicity in mammalian cells, the present inventors treated human epithelial adenocarcinoma HeLa cells with each compound at a wide range of concentrations. […]
as §1

HeLa cells = assay: in vitro; assay type: cell-based, human
Description: These 10 compounds were tested for their MICs and minimum re-sensitizing concentrations (MRCs) in the presence colistin at 2 μg/mL in E. coli AR-0493. […] To evaluate their toxicity in mammalian cells, the present inventors treated human epithelial adenocarcinoma HeLa cells with each compound at a wide range of concentrations.
To evaluate the mammalian toxicity of these analogs, Applicants tested them in cell viability assay using human cervical adenocarcinoma HeLa cells. Their respective half maximal growth inhibition concentration (GI50) was calculated using KaleidaGraph. The selectivity index (SI) for each compound was also calculated as the ratio of their GI50 and MRC. […] Therefore, Applicants selected two bisanilino analogs, 7l and 7m, that bear chlorines at the meta- and para-positions, respectively, of the phenyl groups for further characterization studies. […]. […] Their mammalian toxicities were also evaluated, and SIs calculated. […] Applicants we next explored the scope of analogs 71 and 7m their colistin-potentiating activity in 8 different MDR Gram negative bacteria with diverse genetic backgrounds and resistance mechanisms (Table 7). All strains were obtained from CDC and FDA Antibiotic Resistance Bank. For example, E. coli AR-0493 and K. pneumoniae AR-0497 carry the plasmid that contains the most prevalent mcr-1 gene. E. coli AR-0538, Salmonella Typhimurium AR-0539 and AR-0635 contain the mcr-2, 3, and 4 genes, respectively. These genes encode the phosphoethanolamine transferase, which was originated form the chromosome of A. baumannii, such as AR-0310. […]. A. baumannii AR-0310 appears more sensitive to these two compounds and the MICs of colistin was reduced to 0.25 μg/mL.
as §1

E. coli AR-0349 = assay: MICs of a panel of 9 antibiotics with and without compound 3; assay type: cell-based; conditions: for INT (S-R interpretation): CLSI 2021, M100, Ed 31; for MIC: antibiotic alone, multidrug-resistant E. coli; for MIC (+3): in the presence of 1 μg/mL of compound 3
[3] = Escherichia coli, AR0349, read-out: MIC

## Oc1nc2nonc2nc1Nc1ccccc1Cl [Compound 8k]
E. coli AR-0493 [1]
  MRC (minimum re-sensitizing concentration): 16 µg/mL

## Oc1nc2nonc2nc1Nc1ccccc1 [Compound 8a]
E. coli AR-0493 [1]
  MRC (minimum re-sensitizing concentration): >64 µg/mL

## FC(F)(F)Oc1cccc(Nc2nc3nonc3nc2Nc2cccc(OC(F)(F)F)c2)c1 [Compound 7o]
E. coli AR-0493 [2]
  MIC: >64 µg/mL
HeLa cells
  GI50: 43 µg/mL
E. coli AR-0493 [1]
  MRC (minimum re-sensitizing concentration): 0.25 µg/mL
E. coli AR-0493 [1]; listed as 57o
  MRC (minimum re-sensitizing concentration): 0.25 µg/mL

## Cc1ccc(Nc2nc3nonc3nc2Nc2ccc(C)cc2)cc1 [Compound 7d]
E. coli AR-0493 [2]
  MIC: >64 µg/mL
HeLa cells
  GI50: 1.1 µg/mL
E. coli AR-0493 [1]
  MRC (minimum re-sensitizing concentration): 0.5 µg/mL

## FC(F)(F)Oc1cccc(Nc2nc3nonc3nc2Nc2ccccc2)c1 [Compound 7q]
E. coli AR-0493 [1]
  MRC (minimum re-sensitizing concentration): 1 µg/mL

## FC(F)(F)Oc1ccccc1Nc1nc2nonc2nc1Nc1ccccc1OC(F)(F)F [Compound 7n]
E. coli AR-0493 [1]
  MRC (minimum re-sensitizing concentration): >64 µg/mL

## Oc1nc2nonc2nc1Nc1ccccc1OC(F)(F)F [Compound 8n]
E. coli AR-0493 [1]
  MRC (minimum re-sensitizing concentration): >64 µg/mL

## Cc1cccc(Nc2nc3nonc3nc2Nc2cccc(C)c2)c1 [Compound 7c]
E. coli AR-0493 [2]
  MIC: >64 µg/mL
HeLa cells
  GI50: 1.5 µg/mL
E. coli AR-0493 [1]
  MRC (minimum re-sensitizing concentration): 0.5 µg/mL

## Cc1ccc(Nc2nc3nonc3nc2O)cc1 [Compound 8d]
E. coli AR-0493 [1]
  MRC (minimum re-sensitizing concentration): 64 µg/mL

## Gentamicin
E. coli AR-0349
  INT (S-R interpretation): S
  MIC: 0.5 µg/mL
  MIC (+3): 0.5 µg/mL

## Polymyxin B
E. coli AR-0349
  INT (S-R interpretation): R
  MIC: 16 µg/mL
  MIC (+3): 1 µg/mL
E. coli AR-0349; by 1 μg/mL of compound 3
  fold of potentiation: 16 fold

## COc1cccc(Nc2nc3nonc3nc2Nc2cccc(OC)c2)c1 [Compound 7f]
E. coli AR-0493 [1]
  MRC (minimum re-sensitizing concentration): 2 µg/mL

## COc1ccccc1Nc1nc2nonc2nc1Nc1ccccc1OC [Compound 7e]
E. coli AR-0493 [1]
  MRC (minimum re-sensitizing concentration): >64 µg/mL

## Oc1nc2nonc2nc1Nc1ccc(F)cc1 [Compound 8j]
E. coli AR-0493 [1]
  MRC (minimum re-sensitizing concentration): 32 µg/mL

## Oc1nc2nonc2nc1Nc1cccc(Cl)c1 [Compound 8l]
E. coli AR-0493 [1]
  MRC (minimum re-sensitizing concentration): 16 µg/mL

## O=C(O)c1cn(C2CC2)c2cc(N3CCNCC3)c(F)cc2c1=O [Ciprofloxacin]
E. coli AR-0349; [3]
  MIC: 32 µg/mL (≈ 96.6 µM)
E. coli AR-0349
  MIC (+3): 32 µg/mL

## Cc1ccccc1Nc1nc2nonc2nc1Nc1ccccc1C [Compound 7b]
E. coli AR-0493 [1]
  MRC (minimum re-sensitizing concentration): 8 µg/mL

## Fc1ccc(Nc2nc3nonc3nc2Nc2ccc(F)cc2)cc1 [Compound 7j]
E. coli AR-0493 [2]
  MIC: >64 µg/mL
HeLa cells
  GI50: 9.4 µg/mL
E. coli AR-0493 [1]
  MRC (minimum re-sensitizing concentration): 0.5 µg/mL

## Cc1cccc(Nc2nc3nonc3nc2O)c1 [Compound 8c]
E. coli AR-0493 [1]; listed as 8c (2)
  MRC (minimum re-sensitizing concentration): 8 µg/mL

## Clc1ccccc1Nc1nc2nonc2nc1Nc1ccccc1Cl [Compound 7k]
E. coli AR-0493 [1]
  MRC (minimum re-sensitizing concentration): 8 µg/mL

## Cc1cccc(Nc2nc3nonc3nc2O)c1 [Compound 4]
E. coli AR-0493 [2]
  MIC: did not show either antimicrobial or RMA activity
E. coli AR-0493 [1]
  MRC (minimum re-sensitizing concentration): did not show either antimicrobial or RMA activity

## CC(C)(O/N=C(\C(=O)N[C@@H]1C(=O)N2C(C(=O)[O-])=C(C[n+]3ccccc3)CS[C@H]12)c1csc(N)n1)C(=O)O [Ceftazidime]
E. coli AR-0349
  INT (S-R interpretation): R
  MIC (+3): >64 µg/mL
E. coli AR-0349; [3]
  MIC: > 64 µg/mL

## Oc1nc2nonc2nc1Nc1cccc(F)c1 [Compound 8i]
E. coli AR-0493 [1]
  MRC (minimum re-sensitizing concentration): 64 µg/mL

## Cc1cccc(Nc2nc3nonc3nc2Nc2cccc(OC(F)(F)F)c2)c1 [Compound 7r]
E. coli AR-0493 [2]
  MIC: >64 µg/mL
HeLa cells
  GI50: 12 µg/mL
E. coli AR-0493 [1]
  MRC (minimum re-sensitizing concentration): 0.5 µg/mL

## COc1ccc(Nc2nc3nonc3nc2Nc2ccc(OC)cc2)cc1 [Compound 7g]
E. coli AR-0493 [1]
  MRC (minimum re-sensitizing concentration): >64 µg/mL

## Oc1nc2nonc2nc1Nc1cccc(OC(F)(F)F)c1 [Compound 8o]
E. coli AR-0493 [2]
  MIC: >64 µg/mL
HeLa cells
  GI50: 24 µg/mL
E. coli AR-0493 [1]
  MRC (minimum re-sensitizing concentration): 4 µg/mL

## CO[C@H]1/C=C/O[C@@]2(C)Oc3c(C)c(O)c4c(O)c(c(/C=N/N5CCN(C)CC5)c(O)c4c3C2=O)NC(=O)/C(C)=C\C=C\[C@H](C)[C@H](O)[C@@H](C)[C@@H](O)[C@@H](C)[C@H](OC(C)=O)[C@@H]1C [Rifampicin]
E. coli AR-0349
  INT (S-R interpretation): R
  MIC (+3): 16 µg/mL
E. coli AR-0349; [3]
  MIC: 16 µg/mL (≈ 19.4 µM)

## COc1ccccc1Nc1nc2nonc2nc1Nc1cccc(OC(F)(F)F)c1 [Compound 7s]
E. coli AR-0493 [1]
  MRC (minimum re-sensitizing concentration): >64 µg/mL

## CN(C)[C@@H]1C(O)=C(C(N)=O)C(=O)[C@@]2(O)C(O)=C3C(=O)c4c(O)cccc4[C@@](C)(O)[C@H]3C[C@@H]12 [Tetracycline]
E. coli AR-0349
  INT (S-R interpretation): R
  MIC (+3): >64 µg/mL
E. coli AR-0349; [3]
  MIC: > 64 µg/mL

## COc1ccccc1Nc1nc2nonc2nc1O [Compound 8e]
E. coli AR-0493 [2]
  MIC: >64 µg/mL
E. coli AR-0493 [1]
  MRC (minimum re-sensitizing concentration): 4 µg/mL

## Cc1ccccc1Nc1nc2nonc2nc1O [Compound 8b]
E. coli AR-0493 [1]
  MRC (minimum re-sensitizing concentration): 64 µg/mL

## COc1ccc(Nc2nc3nonc3nc2O)cc1 [Compound 8g]
E. coli AR-0493 [1]
  MRC (minimum re-sensitizing concentration): >64 µg/mL

## Cc1cccc(Nc2nc3nonc3nc2Cl)c1 [ST024336, reference compound]
HeLa cells; HeLa cells, 24 hours
  GI50: 10 µg/mL
E. coli AR-0493 [1]
  MRC (minimum re-sensitizing concentration): 2 µg/mL
E. coli AR-0493 [1]; listed as 1
  MRC (minimum re-sensitizing concentration): > 64 µg/mL

## Oc1nc2nonc2nc1Nc1ccccc1F [Compound 8h]
E. coli AR-0493 [1]
  MRC (minimum re-sensitizing concentration): 64 µg/mL

## COc1cccc(Nc2nc3nonc3nc2O)c1 [Compound 8f]
E. coli AR-0493 [1]
  MRC (minimum re-sensitizing concentration): 16 µg/mL

## CC[C@H]1OC(=O)[C@H](C)[C@@H](O[C@H]2C[C@@](C)(OC)[C@@H](O)[C@H](C)O2)[C@H](C)[C@@H](O[C@@H]2O[C@H](C)C[C@H](N(C)C)[C@H]2O)[C@](C)(O)C[C@@H](C)CN(C)[C@H](C)[C@@H](O)[C@]1(C)O [Azithromycin]
E. coli AR-0349
  INT (S-R interpretation): R
  MIC (+3): >64 µg/mL
E. coli AR-0349; [3]
  MIC: > 64 µg/mL

## Fc1cccc(Nc2nc3nonc3nc2Nc2cccc(F)c2)c1 [Compound 7i]
E. coli AR-0493 [2]
  MIC: >64 µg/mL
HeLa cells
  GI50: 20 µg/mL
E. coli AR-0493 [1]
  MRC (minimum re-sensitizing concentration): 0.5 µg/mL

## c1ccc(Nc2nc3nonc3nc2Nc2ccccc2)cc1 [Compound 7a]
E. coli AR-0493 [2]
  MIC: >64 µg/mL
HeLa cells
  GI50: 4.4 µg/mL
E. coli AR-0493 [1]
  MRC (minimum re-sensitizing concentration): 0.5 µg/mL

## C[C@@H](O)[C@H]1C(=O)N2C(C(=O)O)=C(S[C@@H]3CN[C@H](C(=O)N(C)C)C3)[C@H](C)[C@H]12 [Meropenem]
E. coli AR-0349
  INT (S-R interpretation): S
  MIC (+3): 0.25 µg/mL
E. coli AR-0349; [3]
  MIC: 0.25 µg/mL (≈ 0.652 µM)

## Oc1nc2nonc2nc1Nc1ccc(Cl)cc1 [Compound 8m]
E. coli AR-0493 [1]
  MRC (minimum re-sensitizing concentration): 32 µg/mL
